{"source": "ChEMBL document CHEMBL5126592", "about": "“Design, synthesis and activity against drug-resistant bacteria evaluation of C-20, C-23 modified 5-O-mycaminosyltylonolide derivatives” (Eur J Med Chem, 2022)", "format_in_all_cases": "functional", "settings_in_all_cases": "time 16-20 hrs", "key": {"Klebsiella pneumoniae": {"system": "Klebsiella pneumoniae", "test": "Antibacterial activity against Klebsiella pneumoniae ATCC 13883 incubated for 16 to 20 hrs by broth microdilution method"}, "Staphylococcus aureus": {"system": "Staphylococcus aureus", "test": "Antibacterial activity against Staphylococcus aureus ATCC 25923 incubated for 16 to 20 hrs by broth microdilution method"}, "Escherichia coli": {"system": "Escherichia coli", "test": "Antibacterial activity against Escherichia coli ATCC 25922 incubated for 16 to 20 hrs by broth microdilution method"}, "Cronobacter sakazakii": {"system": "Cronobacter sakazakii", "test": "Antibacterial activity against Cronobacter sakazakii ATCC 29544 incubated for 16 to 20 hrs by broth microdilution method"}}, "data": [{"smiles": "CC[C@H]1OC(=O)C[C@@H](O)[C@H](C)[C@@H](O[C@@H]2O[C@H](C)[C@@H](O)[C@H](N(C)C)[C@H]2O)[C@@H](CCN(Cc2ccc(OC)cc2)Cc2cn(-c3cnc4ccccc4c3)nn2)C[C@@H](C)C(=O)/C=C/C(C)=C/[C@@H]1CN1CCCCCC1", "values": [{"measurement": "MIC", "setting": "Klebsiella pneumoniae", "value": 4, "unit": "µg/mL"}, {"measurement": "MIC", "setting": "Staphylococcus aureus", "value": 0.5, "unit": "µg/mL"}, {"measurement": "MIC", "setting": "Escherichia coli", "value": 8, "unit": "µg/mL"}, {"measurement": "MIC", "setting": "Cronobacter sakazakii", "value": 32, "unit": "µg/mL"}]}, {"smiles": "CC[C@H]1OC(=O)C[C@@H](O)[C@H](C)[C@@H](O[C@@H]2O[C@H](C)[C@@H](O)[C@H](N(C)C)[C@H]2O)[C@@H](CCN(Cc2ccc(C(F)(F)F)cc2)Cc2cn(-c3cnc4ccccc4c3)nn2)C[C@@H](C)C(=O)/C=C/C(C)=C/[C@@H]1CN(CC)CC", "values": [{"measurement": "MIC", "setting": "Klebsiella pneumoniae", "value": 8, "unit": "µg/mL"}, {"measurement": "MIC", "setting": "Staphylococcus aureus", "value": 1, "unit": "µg/mL"}, {"measurement": "MIC", "setting": "Escherichia coli", "value": 4, "unit": "µg/mL"}, {"measurement": "MIC", "setting": "Cronobacter sakazakii", "value": 16, "unit": "µg/mL"}]}, {"smiles": "CC[C@H]1OC(=O)C[C@@H](O)[C@H](C)[C@@H](O[C@@H]2O[C@H](C)[C@@H](O)[C@H](N(C)C)[C@H]2O)[C@@H](CCN(Cc2ccccc2)Cc2cn(-c3cnc4ccccc4c3)nn2)C[C@@H](C)C(=O)/C=C/C(C)=C/[C@@H]1CN(CC)CC", "values": [{"measurement": "MIC", "setting": "Klebsiella pneumoniae", "value": 8, "unit": "µg/mL"}, {"measurement": "MIC", "setting": "Staphylococcus aureus", "value": 0.25, "unit": "µg/mL"}, {"measurement": "MIC", "setting": "Escherichia coli", "value": 8, "unit": "µg/mL"}, {"measurement": "MIC", "setting": "Cronobacter sakazakii", "value": 8, "unit": "µg/mL"}]}, {"smiles": "CCCCN(CCCC)C[C@H]1/C=C(C)/C=C/C(=O)[C@H](C)C[C@H](CCN(Cc2ccc(Br)cc2)Cc2cn(-c3cnc4ccccc4c3)nn2)[C@H](O[C@@H]2O[C@H](C)[C@@H](O)[C@H](N(C)C)[C@H]2O)[C@@H](C)[C@H](O)CC(=O)O[C@@H]1CC", "values": [{"measurement": "MIC", "setting": "Klebsiella pneumoniae", "value": 16, "unit": "µg/mL"}, {"measurement": "MIC", "setting": "Staphylococcus aureus", "value": 1, "unit": "µg/mL"}, {"measurement": "MIC", "setting": "Escherichia coli", "value": 8, "unit": "µg/mL"}, {"measurement": "MIC", "setting": "Cronobacter sakazakii", "value": 16, "unit": "µg/mL"}]}, {"smiles": "CC[C@H]1OC(=O)C[C@@H](O)[C@H](C)[C@@H](O[C@@H]2O[C@H](C)[C@@H](O)[C@H](N(C)C)[C@H]2O)[C@@H](CCN(Cc2cn(-c3cnc4ccccc4c3)nn2)Cc2ccco2)C[C@@H](C)C(=O)/C=C/C(C)=C/[C@@H]1CN(CC)CC", "values": [{"measurement": "MIC", "setting": "Klebsiella pneumoniae", "value": 16, "unit": "µg/mL"}, {"measurement": "MIC", "setting": "Staphylococcus aureus", "value": 1, "unit": "µg/mL"}, {"measurement": "MIC", "setting": "Escherichia coli", "value": 4, "unit": "µg/mL"}, {"measurement": "MIC", "setting": "Cronobacter sakazakii", "value": 8, "unit": "µg/mL"}]}, {"smiles": "CC[C@H]1OC(=O)C[C@@H](O)[C@H](C)[C@@H](O[C@@H]2O[C@H](C)[C@@H](O)[C@H](N(C)C)[C@H]2O)[C@@H](CCN(Cc2ccc(O)c(OC)c2)Cc2cn(-c3cnc4ccccc4c3)nn2)C[C@@H](C)C(=O)/C=C/C(C)=C/[C@@H]1CO", "values": [{"measurement": "MIC", "setting": "Klebsiella pneumoniae", "value": 16, "unit": "µg/mL"}, {"measurement": "MIC", "setting": "Staphylococcus aureus", "value": 0.5, "unit": "µg/mL"}, {"measurement": "MIC", "setting": "Escherichia coli", "value": 16, "unit": "µg/mL"}, {"measurement": "MIC", "setting": "Cronobacter sakazakii", "value": 16, "unit": "µg/mL"}]}, {"smiles": "CC[C@H]1OC(=O)C[C@@H](O)[C@H](C)[C@@H](O[C@@H]2O[C@H](C)[C@@H](O)[C@H](N(C)C)[C@H]2O)[C@@H](CCN(Cc2ccccc2)Cc2cn(-c3cnc4ccccc4c3)nn2)C[C@@H](C)C(=O)/C=C/C(C)=C/[C@@H]1CN1CC(C)CC(C)C1", "note": "(some centres not stated)", "values": [{"measurement": "MIC", "setting": "Klebsiella pneumoniae", "value": 16, "unit": "µg/mL"}, {"measurement": "MIC", "setting": "Staphylococcus aureus", "value": 4, "unit": "µg/mL"}, {"measurement": "MIC", "setting": "Escherichia coli", "value": 16, "unit": "µg/mL"}, {"measurement": "MIC", "setting": "Cronobacter sakazakii", "value": 16, "unit": "µg/mL"}]}, {"smiles": "CC[C@H]1OC(=O)C[C@@H](O)[C@H](C)[C@@H](O[C@@H]2O[C@H](C)[C@@H](O)[C@H](N(C)C)[C@H]2O)[C@@H](CCN(Cc2cn(-c3cnc4ccccc4c3)nn2)Cc2ccco2)C[C@@H](C)C(=O)/C=C/C(C)=C/[C@@H]1CN1CCCCCCC1", "values": [{"measurement": "MIC", "setting": "Klebsiella pneumoniae", "value": 8, "unit": "µg/mL"}, {"measurement": "MIC", "setting": "Staphylococcus aureus", "value": 1, "unit": "µg/mL"}, {"measurement": "MIC", "setting": "Escherichia coli", "value": 4, "unit": "µg/mL"}, {"measurement": "MIC", "setting": "Cronobacter sakazakii", "value": 32, "unit": "µg/mL"}]}, {"smiles": "CC[C@H]1OC(=O)C[C@@H](O)[C@H](C)[C@@H](O[C@@H]2O[C@H](C)[C@@H](O)[C@H](N(C)C)[C@H]2O)[C@@H](CCN(Cc2ccc(OC)cc2)Cc2cn(-c3cnc4ccccc4c3)nn2)C[C@@H](C)C(=O)/C=C/C(C)=C/[C@@H]1CN1CCCCC1", "values": [{"measurement": "MIC", "setting": "Klebsiella pneumoniae", "value": 8, "unit": "µg/mL"}, {"measurement": "MIC", "setting": "Staphylococcus aureus", "value": 0.5, "unit": "µg/mL"}, {"measurement": "MIC", "setting": "Escherichia coli", "value": 4, "unit": "µg/mL"}, {"measurement": "MIC", "setting": "Cronobacter sakazakii", "value": 16, "unit": "µg/mL"}]}, {"smiles": "CCCCN(CCCC)C[C@H]1/C=C(C)/C=C/C(=O)[C@H](C)C[C@H](CCN(C)Cc2cn(-c3cnc4ccccc4c3)nn2)[C@H](O[C@@H]2O[C@H](C)[C@@H](O)[C@H](N(C)C)[C@H]2O)[C@@H](C)[C@H](O)CC(=O)O[C@@H]1CC", "values": [{"measurement": "MIC", "setting": "Klebsiella pneumoniae", "value": 16, "unit": "µg/mL"}, {"measurement": "MIC", "setting": "Staphylococcus aureus", "value": 0.5, "unit": "µg/mL"}, {"measurement": "MIC", "setting": "Escherichia coli", "value": 8, "unit": "µg/mL"}, {"measurement": "MIC", "setting": "Cronobacter sakazakii", "value": 16, "unit": "µg/mL"}]}, {"smiles": "CC[C@H]1OC(=O)C[C@@H](O)[C@H](C)[C@@H](O[C@@H]2O[C@H](C)[C@@H](O)[C@H](N(C)C)[C@H]2O)[C@@H](CCN(Cc2ccc(C(F)(F)F)cc2)Cc2cn(-c3cnc4ccccc4c3)nn2)C[C@@H](C)C(=O)/C=C/C(C)=C/[C@@H]1CN1CCCCC1", "values": [{"measurement": "MIC", "setting": "Klebsiella pneumoniae", "value": 16, "unit": "µg/mL"}, {"measurement": "MIC", "setting": "Staphylococcus aureus", "value": 1, "unit": "µg/mL"}, {"measurement": "MIC", "setting": "Escherichia coli", "value": 8, "unit": "µg/mL"}, {"measurement": "MIC", "setting": "Cronobacter sakazakii", "value": 16, "unit": "µg/mL"}]}, {"smiles": "CC[C@H]1OC(=O)C[C@@H](O)[C@H](C)[C@@H](O[C@@H]2O[C@H](C)[C@@H](O)[C@H](N(C)C)[C@H]2O)[C@@H](CCN(Cc2cn(-c3cnc4ccccc4c3)nn2)Cc2ccco2)C[C@@H](C)C(=O)/C=C/C(C)=C/[C@@H]1CN1CCCCCC1", "values": [{"measurement": "MIC", "setting": "Klebsiella pneumoniae", "value": 4, "unit": "µg/mL"}, {"measurement": "MIC", "setting": "Staphylococcus aureus", "value": 1, "unit": "µg/mL"}, {"measurement": "MIC", "setting": "Escherichia coli", "value": 4, "unit": "µg/mL"}, {"measurement": "MIC", "setting": "Cronobacter sakazakii", "value": 8, "unit": "µg/mL"}]}, {"smiles": "CC[C@H]1OC(=O)C[C@@H](O)[C@H](C)[C@@H](O[C@@H]2O[C@H](C)[C@@H](O)[C@H](N(C)C)[C@H]2O)[C@@H](CCN(Cc2ccsc2)Cc2cn(-c3cnc4ccccc4c3)nn2)C[C@@H](C)C(=O)/C=C/C(C)=C/[C@@H]1CO", "values": [{"measurement": "MIC", "setting": "Klebsiella pneumoniae", "value": 16, "unit": "µg/mL"}, {"measurement": "MIC", "setting": "Staphylococcus aureus", "value": 0.25, "unit": "µg/mL"}, {"measurement": "MIC", "setting": "Escherichia coli", "value": 16, "unit": "µg/mL"}, {"measurement": "MIC", "setting": "Cronobacter sakazakii", "value": 32, "unit": "µg/mL"}]}]}
